# Key:
# Experiment in all cases: biochemical
# Design in all cases: CEREP panel radioligand binding displacement, % inhibition of control specific binding by 10 uM 2BAct
# [1] = biological target: T1, NK1 (h) (Homo sapiens, UniProt P25103); conditions: Type=Agonist radioligand; read-out: % inhibition of Control specific binding
# T1 construct: gene TACR1
# Protocol: (§1) Supplementary file elife-42940-supp1.xlsx: Supplementary file 1. (A) Binding of 2BAct at 10 μM to the CEREP panel of receptors/enzymes/ion channels. Compound binding was calculated as a % inhibition of the binding of a radioactively labeled ligand specific for each target. Results showing inhibition or stimulation higher than 50% are considered to represent significant effects of the test compound. (B) Pharmacokinetic data from 2BAct dosing in mice. (C) GO Biological Processes identified by enrichment analysis of RNA-seq data. (D) List of genes used for enrichment analysis of scRNA-seq data.
# [2] = biological target: T2, a1A (h) (Homo sapiens, UniProt P35348); conditions: Type=Antagonist radioligand; read-out: % inhibition of Control specific binding
# T2 construct: gene ADRA1A
# Protocol: as §1
# [3] = biological target: T3, b1 (h) (Homo sapiens, UniProt P08588); conditions: Type=Agonist radioligand; read-out: % inhibition of Control specific binding
# T3 construct: gene ADRB1
# Protocol: as §1
# [4] = biological target: T4, D2S (h) (Homo sapiens, UniProt P14416); conditions: Type=Antagonist radioligand; read-out: % inhibition of Control specific binding
# T4 construct: gene DRD2; short isoform (D2S)
# Protocol: as §1
# [5] = biological target: T5, A2b (h) (Homo sapiens, UniProt P29275); conditions: Type=Antagonist radioligand; read-out: % inhibition of Control specific binding
# T5 construct: gene ADORA2B
# Protocol: as §1
# [6] = biological target: T6, M4 (h) (Homo sapiens, UniProt P08173); conditions: Type=Antagonist radioligand; read-out: % inhibition of Control specific binding
# T6 construct: gene CHRM4
# Protocol: as §1
# [7] = biological target: T7, UT (h) (Homo sapiens, UniProt Q9UKP6); conditions: Type=Agonist radioligand; read-out: % inhibition of Control specific binding
# T7 construct: gene UTS2R
# Protocol: as §1
# [8] = biological target: T8, CB2 (h) (Homo sapiens, UniProt P34972); conditions: Type=Agonist radioligand; read-out: % inhibition of Control specific binding
# T8 construct: gene CNR2
# Protocol: as §1
# [9] = biological target: T9, b2 (h) (Homo sapiens, UniProt P07550); conditions: Type=Agonist radioligand; read-out: % inhibition of Control specific binding
# T9 construct: gene ADRB2
# Protocol: as §1
# [10] = biological target: T10, H1 (h) (Homo sapiens, UniProt P35367); conditions: Type=Antagonist radioligand; read-out: % inhibition of Control specific binding
# T10 construct: gene HRH1
# Protocol: as §1
# [11] = biological target: T11, dopamine transporter (h) (Homo sapiens, UniProt Q01959); conditions: Type=Antagonist radioligand; read-out: % inhibition of Control specific binding
# T11 construct: gene SLC6A3
# Protocol: as §1
# [12] = biological target: T12, GR (h) (Homo sapiens, UniProt P04150); conditions: Type=Agonist radioligand; read-out: % inhibition of Control specific binding
# T12 construct: gene NR3C1
# Protocol: as §1
# [13] = biological target: T13, H2 (h) (Homo sapiens, UniProt P25021); conditions: Type=Antagonist radioligand; read-out: % inhibition of Control specific binding
# T13 construct: gene HRH2
# Protocol: as §1
# [14] = biological target: T14, CGRP (h) (Homo sapiens, UniProt Q16602); conditions: Type=Agonist radioligand; read-out: % inhibition of Control specific binding
# T14 construct: gene CALCRL
# Protocol: as §1
# [15] = biological target: T15, d (DOP) (h) (Homo sapiens, UniProt P41143); conditions: Type=Agonist radioligand; read-out: % inhibition of Control specific binding
# T15 construct: gene OPRD1
# Protocol: as §1
# [16] = biological target: T16, 5-HT7 (h) (Homo sapiens, UniProt P34969); conditions: Type=Agonist radioligand; read-out: % inhibition of Control specific binding
# T16 construct: gene HTR7
# Protocol: as §1
# [17] = biological target: T17, k (KOP) (Rattus norvegicus, UniProt P34975); conditions: Type=Agonist radioligand; read-out: % inhibition of Control specific binding
# T17 construct: gene Oprk1
# Protocol: as §1
# T15 sequence (P41143 whole entry): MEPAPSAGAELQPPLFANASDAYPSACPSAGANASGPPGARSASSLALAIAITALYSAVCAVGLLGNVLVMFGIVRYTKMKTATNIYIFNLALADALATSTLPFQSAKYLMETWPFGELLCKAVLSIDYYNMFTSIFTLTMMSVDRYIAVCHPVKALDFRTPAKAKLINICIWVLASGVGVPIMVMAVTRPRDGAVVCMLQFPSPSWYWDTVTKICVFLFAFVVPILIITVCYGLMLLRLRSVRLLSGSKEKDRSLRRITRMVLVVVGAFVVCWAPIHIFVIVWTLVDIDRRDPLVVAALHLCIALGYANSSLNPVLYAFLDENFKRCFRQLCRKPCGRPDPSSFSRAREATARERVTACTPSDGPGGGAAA
# T17 sequence (P34975 whole entry): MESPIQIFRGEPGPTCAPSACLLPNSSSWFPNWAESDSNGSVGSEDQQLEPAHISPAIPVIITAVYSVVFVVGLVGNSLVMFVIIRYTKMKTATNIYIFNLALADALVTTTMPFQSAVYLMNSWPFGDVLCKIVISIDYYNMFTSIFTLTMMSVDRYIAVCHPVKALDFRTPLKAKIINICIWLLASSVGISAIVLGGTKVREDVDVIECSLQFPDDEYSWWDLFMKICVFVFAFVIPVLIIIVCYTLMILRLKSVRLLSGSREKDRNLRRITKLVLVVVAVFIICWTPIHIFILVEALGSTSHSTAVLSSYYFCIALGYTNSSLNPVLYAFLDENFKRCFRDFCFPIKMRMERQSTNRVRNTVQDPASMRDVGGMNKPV
# T5 sequence (P29275 whole entry): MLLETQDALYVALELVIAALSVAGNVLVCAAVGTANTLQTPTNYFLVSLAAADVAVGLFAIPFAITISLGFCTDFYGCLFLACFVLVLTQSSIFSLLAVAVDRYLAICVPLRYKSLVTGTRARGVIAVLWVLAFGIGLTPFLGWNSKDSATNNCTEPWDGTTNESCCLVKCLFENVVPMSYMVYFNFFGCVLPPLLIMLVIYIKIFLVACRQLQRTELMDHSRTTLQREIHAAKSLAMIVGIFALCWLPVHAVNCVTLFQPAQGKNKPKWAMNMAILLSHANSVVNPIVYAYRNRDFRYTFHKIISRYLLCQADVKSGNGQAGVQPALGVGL
# T2 sequence (P35348 whole entry): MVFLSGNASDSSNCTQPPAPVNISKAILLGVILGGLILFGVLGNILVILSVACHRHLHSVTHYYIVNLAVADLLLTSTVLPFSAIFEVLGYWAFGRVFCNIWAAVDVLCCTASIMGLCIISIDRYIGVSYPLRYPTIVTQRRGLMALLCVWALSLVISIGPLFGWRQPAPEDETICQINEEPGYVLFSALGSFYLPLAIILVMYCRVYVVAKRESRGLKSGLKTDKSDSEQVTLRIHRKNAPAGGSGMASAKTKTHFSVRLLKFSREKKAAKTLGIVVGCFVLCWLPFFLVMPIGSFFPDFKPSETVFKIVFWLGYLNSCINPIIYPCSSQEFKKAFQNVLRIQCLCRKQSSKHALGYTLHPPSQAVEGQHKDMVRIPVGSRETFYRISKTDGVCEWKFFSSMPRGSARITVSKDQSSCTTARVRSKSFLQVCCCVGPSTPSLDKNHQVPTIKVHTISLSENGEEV
# T13 sequence (P25021 whole entry): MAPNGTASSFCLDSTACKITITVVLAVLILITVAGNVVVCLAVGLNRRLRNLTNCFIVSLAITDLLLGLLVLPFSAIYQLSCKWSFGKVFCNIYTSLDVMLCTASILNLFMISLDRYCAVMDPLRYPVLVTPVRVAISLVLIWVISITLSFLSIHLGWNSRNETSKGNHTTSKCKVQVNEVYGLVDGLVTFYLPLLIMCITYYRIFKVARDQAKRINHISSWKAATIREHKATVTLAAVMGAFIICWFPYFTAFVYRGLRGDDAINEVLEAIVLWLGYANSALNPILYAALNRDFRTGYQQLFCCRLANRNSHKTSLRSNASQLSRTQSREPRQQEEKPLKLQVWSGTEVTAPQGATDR
# T16 sequence (P34969 whole entry): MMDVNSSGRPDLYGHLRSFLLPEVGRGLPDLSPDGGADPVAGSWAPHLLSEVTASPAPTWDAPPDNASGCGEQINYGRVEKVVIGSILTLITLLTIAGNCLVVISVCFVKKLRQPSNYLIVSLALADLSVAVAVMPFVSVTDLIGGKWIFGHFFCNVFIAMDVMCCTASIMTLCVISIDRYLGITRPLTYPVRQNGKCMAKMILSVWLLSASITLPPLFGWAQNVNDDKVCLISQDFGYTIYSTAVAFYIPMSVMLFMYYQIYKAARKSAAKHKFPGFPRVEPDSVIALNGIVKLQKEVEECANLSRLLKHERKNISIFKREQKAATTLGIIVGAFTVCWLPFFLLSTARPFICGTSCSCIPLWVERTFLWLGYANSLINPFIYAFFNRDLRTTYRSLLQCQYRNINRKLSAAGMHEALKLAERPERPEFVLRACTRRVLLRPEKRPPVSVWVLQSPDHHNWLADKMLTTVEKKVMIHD
# T4 sequence (P14416 whole entry, canonical isoform): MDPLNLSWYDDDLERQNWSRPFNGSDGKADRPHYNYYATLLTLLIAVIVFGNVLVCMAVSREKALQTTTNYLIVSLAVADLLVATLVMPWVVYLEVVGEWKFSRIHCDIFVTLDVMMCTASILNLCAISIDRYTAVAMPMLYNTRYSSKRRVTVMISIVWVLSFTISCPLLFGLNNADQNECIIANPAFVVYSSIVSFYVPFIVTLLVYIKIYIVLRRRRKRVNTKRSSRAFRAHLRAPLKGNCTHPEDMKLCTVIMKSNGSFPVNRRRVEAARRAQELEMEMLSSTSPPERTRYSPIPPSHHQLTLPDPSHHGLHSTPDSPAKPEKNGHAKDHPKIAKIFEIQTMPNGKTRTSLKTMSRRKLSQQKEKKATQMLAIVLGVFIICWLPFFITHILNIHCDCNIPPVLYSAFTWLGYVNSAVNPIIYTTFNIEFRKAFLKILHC
# T12 sequence (P04150 whole entry): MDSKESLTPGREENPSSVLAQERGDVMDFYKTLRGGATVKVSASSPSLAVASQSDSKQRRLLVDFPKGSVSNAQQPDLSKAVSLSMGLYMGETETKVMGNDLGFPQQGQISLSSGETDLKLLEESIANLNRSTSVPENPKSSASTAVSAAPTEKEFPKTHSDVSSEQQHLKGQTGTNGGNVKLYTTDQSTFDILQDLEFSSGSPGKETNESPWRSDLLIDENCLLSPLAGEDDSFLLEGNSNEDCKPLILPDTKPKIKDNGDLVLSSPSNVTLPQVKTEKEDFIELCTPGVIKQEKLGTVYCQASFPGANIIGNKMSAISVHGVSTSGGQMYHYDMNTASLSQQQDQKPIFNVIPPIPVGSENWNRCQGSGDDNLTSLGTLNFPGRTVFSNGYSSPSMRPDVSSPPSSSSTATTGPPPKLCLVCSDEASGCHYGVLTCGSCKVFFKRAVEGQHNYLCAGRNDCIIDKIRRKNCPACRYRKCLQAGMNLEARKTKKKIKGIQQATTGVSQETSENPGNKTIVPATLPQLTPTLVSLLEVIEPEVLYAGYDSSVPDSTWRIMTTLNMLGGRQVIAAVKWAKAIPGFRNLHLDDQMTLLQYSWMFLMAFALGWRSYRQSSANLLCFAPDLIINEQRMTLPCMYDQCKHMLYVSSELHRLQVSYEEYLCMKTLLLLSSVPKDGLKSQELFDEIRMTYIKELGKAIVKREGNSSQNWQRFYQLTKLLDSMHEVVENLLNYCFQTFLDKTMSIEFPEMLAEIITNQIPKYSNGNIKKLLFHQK
# T14 sequence (Q16602 whole entry): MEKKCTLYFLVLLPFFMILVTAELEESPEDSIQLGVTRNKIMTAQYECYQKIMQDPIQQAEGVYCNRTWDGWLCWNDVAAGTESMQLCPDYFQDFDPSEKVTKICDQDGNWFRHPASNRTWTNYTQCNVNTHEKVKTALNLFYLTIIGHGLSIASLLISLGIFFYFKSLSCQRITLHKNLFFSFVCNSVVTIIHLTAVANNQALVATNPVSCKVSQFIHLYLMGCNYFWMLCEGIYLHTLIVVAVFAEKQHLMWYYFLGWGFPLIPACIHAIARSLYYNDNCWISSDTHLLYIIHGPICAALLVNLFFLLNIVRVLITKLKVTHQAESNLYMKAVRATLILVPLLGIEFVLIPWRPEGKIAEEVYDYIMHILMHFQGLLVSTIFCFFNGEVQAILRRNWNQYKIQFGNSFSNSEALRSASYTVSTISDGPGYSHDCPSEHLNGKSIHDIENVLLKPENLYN
# T14 sequence (O60894 whole entry partner): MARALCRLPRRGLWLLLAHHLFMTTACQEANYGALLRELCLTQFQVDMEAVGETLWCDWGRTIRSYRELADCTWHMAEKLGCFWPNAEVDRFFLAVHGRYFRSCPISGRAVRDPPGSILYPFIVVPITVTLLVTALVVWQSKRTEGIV
# T3 sequence (P08588 whole entry): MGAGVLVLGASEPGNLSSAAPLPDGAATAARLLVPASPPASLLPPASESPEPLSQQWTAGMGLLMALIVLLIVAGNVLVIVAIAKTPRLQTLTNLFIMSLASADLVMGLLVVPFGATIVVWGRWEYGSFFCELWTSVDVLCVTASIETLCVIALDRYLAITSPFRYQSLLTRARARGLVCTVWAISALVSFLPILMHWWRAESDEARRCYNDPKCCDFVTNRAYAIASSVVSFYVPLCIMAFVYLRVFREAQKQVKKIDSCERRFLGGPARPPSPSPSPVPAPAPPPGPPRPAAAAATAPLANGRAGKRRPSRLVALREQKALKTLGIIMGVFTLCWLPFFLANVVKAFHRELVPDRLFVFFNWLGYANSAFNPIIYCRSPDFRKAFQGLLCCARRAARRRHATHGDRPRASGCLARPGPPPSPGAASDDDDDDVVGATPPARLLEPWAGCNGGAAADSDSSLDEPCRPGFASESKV
compound,measurement,setting,value
O=C(COc1ccc(Cl)c(F)c1)NC12CC(NC(=O)c3cnc(C(F)F)cn3)(C1)C2 [2BAct],inhibition at 10 µM,[1],29.1%
same,inhibition at 10 µM,[2],6.6%
same,inhibition at 10 µM,[3],7.8%
same,inhibition at 10 µM,[4],1.3%
same,inhibition at 10 µM,[5],50.1%
same,inhibition at 10 µM,[6],11%
same,inhibition at 10 µM,[7],5.8%
same,inhibition at 10 µM,[8],2%
same,inhibition at 10 µM,[9],4.4%
same,inhibition at 10 µM,[10],0.2%
same,inhibition at 10 µM,[11],53.2%
same,inhibition at 10 µM,[12],3.2%
same,inhibition at 10 µM,[13],-17.4%
same,inhibition at 10 µM,[14],-4.8%
same,inhibition at 10 µM,[15],2.9%
same,inhibition at 10 µM,[16],3.9%
same,inhibition at 10 µM,[17],2.1%

# — publication PMC6326728, “eIF2B activator prevents neurological defects caused by a chronic integrated stress response” (eLife, 2019)
